Measured values as given in ChEMBL document CHEMBL1134487, “Design, synthesis, and biological evaluation of analogues of the antitumor agent, 2-(4-[(7-chloro-2-quinoxalinyl)oxy]phenoxy)propionic acid (XK469)” (2001).

What was measured:
Mus musculus [1] = test: Cytotoxicity against sc transplanted colon-38 tumors of mouse origin, activity expressed as %body wt lose at the dose of 546 mg/kg, iv; format: functional
Mus musculus [2] = test: Cytotoxicity against sc transplanted Squam-lung-LC12 tumors of mouse origin, activity expressed as cures at the dose of 400 mg/kg, iv; 5/5 cures; format: functional
Mus musculus [3] = test: Cytotoxicity against transplanted Panc-02 tumors of mouse origin, activity expressed as cures at the dose of 600 mg/kg, iv; 0/6 cures; format: functional
Mus musculus [4] = test: Cytotoxicity against sc transplanted Mam-16/C/Adr tumors of mouse origin, activity expressed as […] at the dose of 400 mg/kg, iv; 0/5 cures; format: functional
Mus musculus [5] = test: Cytotoxicity against sc transplanted colon-51 tumors of mouse origin, activity expressed as T/C(%) at the dose of 980 mg/kg, po; format: functional
Mus musculus [6] = test: Cytotoxicity against sc transplanted Mam-17/Adr tumors of mouse origin, activity expressed as cures at the dose of 620 mg/kg, iv; 0/5 cures; format: functional
Mus musculus [7] = test: Cytotoxicity against sc transplanted Mam-16/C/Taxol tumors of mouse origin, activity expressed as %T/C at the dose of 480 mg/kg, iv; format: functional
Mus musculus [8] = test: Cytotoxicity against iv transplanted L1210 tumors of mouse origin, activity expressed as %ILS at the dose of 300 mg/kg, iv; format: functional
Mus musculus [9] = test: Cytotoxicity against sc transplanted Mam-16/C/Adr tumors of mouse origin, activity expressed as T/C(%) at the dose of 400 mg/kg, iv; format: functional
Mus musculus [10] = test: Cytotoxicity against sc transplanted Mam-17/0 tumors of mouse origin, activity expressed as T/C(%) at the dose of 620 mg/kg, iv; format: functional
Mus musculus [11] = test: Cytotoxicity against iv transplanted L1210 tumors of mouse origin, activity expressed as cures at the dose of 300 mg/kg, iv; 0/5 cures; format: functional
Mus musculus [12] = test: Cytotoxicity against sc transplanted Panc-02 tumors of mouse origin, activity expressed as T/C(%) at the dose of 600 mg/kg, iv; format: functional
Mus musculus [13] = test: Cytotoxicity against sc transplanted Mam-16/C/Adr tumors of mouse origin, activity expressed as %body wt. loss at the dose of 400 mg/kg, iv; format: functional
Mus musculus [14] = test: Cytotoxicity against sc transplanted colon-26 tumors of mouse origin, activity expressed as cures at the dose of 300 mg/kg, iv; 0/5 cures; format: functional
Mus musculus [15] = test: Cytotoxicity against sc transplanted L1210 tumors of mouse origin, activity expressed as T/C(%) at the dose of 332 mg/kg, iv; format: functional
Mus musculus [16] = test: Cytotoxicity against sc transplanted Panc-03 tumors of mouse origin, activity expressed as cures at the dose of 328 mg/kg, po; 4/6 cures; format: functional
Mus musculus [17] = test: Cytotoxicity against iv transplanted L1210 tumors of mouse origin, activity expressed as %body wt. loss at the dose of 300 mg/kg, iv; format: functional
Mus musculus [18] = test: Cytotoxicity against sc transplanted DMS273 sm cell tumors of mouse and human origin, activity expressed as log10 Kill at the dose of 175 mg/kg, iv; format: functional, organism-based; set-up: dose 175 mg/kg
Mus musculus [19] = test: Cytotoxicity against sc transplanted Panc-02 tumors of mouse origin, activity expressed as %body wt. loss at the dose of 600 mg/kg, iv; format: functional
Mus musculus [20] = test: In vivo activity tested against C3H mice bearing panc-03 murine tumor, measured as cures at 328 mg/kg (po); 4/6 cures; format: functional
Mus musculus [21] = test: Cytotoxicity against sc transplanted Mam-17/0 tumors of mouse origin, activity expressed as %body wt. loss at the dose of 620 mg/kg, iv; format: functional
Mus musculus [22] = test: Cytotoxicity against sc transplanted B-16 melanoma tumors of mouse origin, activity expressed as log10 Kill at the dose of 300 mg/kg, iv; format: functional, organism-based; set-up: dose 300 mg/kg
Mus musculus [23] = test: In vivo activity tested against C3H mice bearing panc-03 murine tumor measured as log Kill value was based on tumors that grew at 328 mg/kg (po); format: functional, organism-based; set-up: dose 328 mg/kg
Mus musculus [24] = test: Cytotoxicity against sc transplanted Mam-17/Adr tumors of mouse origin, activity expressed as log10 Kill at the dose of 620 mg/kg, iv; format: functional, organism-based; set-up: dose 620 mg/kg
Mus musculus [25] = test: In vivo activity tested against C3H mice bearing mammary adenocarcinoma -17/ADR tumor measured as % treated/control calculated at 620 mg/kg (po); format: functional
Mus musculus [26] = test: Cytotoxicity against iv transplanted AML1498 tumors of mouse origin, activity expressed as %body wt. loss at the dose of 165 mg/kg, iv; format: functional
Mus musculus [27] = test: Cytotoxicity against sc transplanted colon-38 tumors of mouse origin, activity expressed as cures at the dose of 546 mg/kg, iv; 3/5 cures; format: functional
Mus musculus [28] = test: In vivo activity tested against C3H mice bearing panc-03 murine tumor measured as% treated/control calculated at 328 mg/kg (po); format: functional
Mus musculus [29] = test: Cytotoxicity against sc transplanted B-16 melanoma tumors of mouse origin, activity expressed as cures at the dose of 300 mg/kg, iv; 0/5 cures; format: functional

CC(Oc1ccc(Oc2cnc3ccc(Cl)cc3n2)cc1)C(=O)O (centres undefined)
Body weight loss (Mus musculus [1]): -3.5%
Cures (Mus musculus [2]): 5
Cures (Mus musculus [3]): 0
Cures (Mus musculus [4]): 0
T/C (Mus musculus [5]): 0%
Cures (Mus musculus [6]): 0
T/C (Mus musculus [7]): 14%
ILS at 300 mg/kg (Mus musculus [8]): 160%
T/C (Mus musculus [9]): 0%
T/C (Mus musculus [10]): 10%
Cures (Mus musculus [11]): 0
T/C (Mus musculus [12]): 9%
Body weight loss (Mus musculus [13]): -9%
Cures (Mus musculus [14]): 0
T/C (Mus musculus [15]): 30%
Cures (Mus musculus [16]): 4
Body weight loss (Mus musculus [17]): -2%
Log kill (Mus musculus [18]): 1.6
Body weight loss (Mus musculus [19]): -3%
Cures (Mus musculus [20]): 4
Body weight loss (Mus musculus [21]): -12%
Log kill (Mus musculus [22]): 2.6
Log kill (Mus musculus [23]): 2.1
Log kill (Mus musculus [24]): 3.9
T/C (Mus musculus [25]): 2%
Body weight loss (Mus musculus [26]): -7%
Cures (Mus musculus [27]): 3
T/C (Mus musculus [28]): 0%
Cures (Mus musculus [29]): 0
